# Measurements taken from patent publication US11510903B2, “Synergic pharmaceutical composition of the active enantiomer (S)-ketorolac and Gabapentin for the treatment of neuropathic pain” (priority 2018, dated 2022).
# What was measured:
# [1] = Relative pharmacological potency of S-Ketorolac tromethamine versus Rac Ketorolac and AA; settings: fold more potent
# [2] = fold more active; cited from earlier work
# [3] = test system: rats with a chronic constriction injury (neuropathic pain); assay: Von Frey test (mechanical hyperalgesia, 15 g filament) in rats with chronic constriction injury of the sciatic nerve; type: in vivo, rat (male Wistar); settings: oral
# Description: (§1) Said experimental model is based on the unilateral ligature of the sciatic nerve, which produces a chronic constriction injury, (CCI). This experimental model has shown itself to be sensitive to a number of drugs that are used clinically for the symptomatic treatment of neuropathic pain. […] The following observed behaviors are indicative of neuropathic pain: (1) autotomy, the animal injures itself in the denervated leg, (2) allodynia, withdrawal of the leg in the face of harmless stimulus that may be mechanical or cold (acetone), (3) hyperalgesia, violent withdrawal of the leg in the face of a moderate thermal or mechanical stimulus (Von Frey filaments 15 g). These aforementioned parameters have been widely used on pharmacology and the modulation of neuropathic pain. The tests that are most used to determine allodynia and hyperalgesia are: mechanical hyperalgesia with the von Frey filaments, the cold allodynia with acetone, thermal hyperalgesia with the plantar test and mechanical hyperalgesia with the pinprick test.
# Male Wistar rats [Crl:(WI)fBR], with a body weight of 120-140 g at the start of the experimental phase, which weighed 160-180 g when the drugs were administered, were used for the particular study in this invention. The animals were kept in polycarbonate boxes under conditions of controlled temperature and light, with 12-hour cycles of light/dark and ad limitum water and food intake. All the experiments were carried out during the light phase. […]
# The degree of hyperalgesia and allodynia in the rats submitted to the sciatic nerve surgery was determined by means of the Von Frey test and the acetone test. […]
# The rats were placed on a metal screen in a box of transparent acrylic where they remained for at least 10 minutes to adapt before the test. The response was determined to a tactile stimulus applied to the plantar surface of the rear right leg using the 15 g von Frey filament. […]
# [4] = test system: rats with a chronic constriction injury (neuropathic pain); assay: Acetone test (cold allodynia) in rats with chronic constriction injury of the sciatic nerve; type: in vivo, rat (male Wistar); settings: oral
# Description: as §1
# Male Wistar rats [Crl:(WI)fBR], with a body weight of 120-140 g at the start of the experimental phase, which weighed 160-180 g when the drugs were administered, were used for the particular study in this invention. The animals were kept in polycarbonate boxes under conditions of controlled temperature and light, with 12-hour cycles of light/dark and ad limitum water and food intake. All the experiments were carried out during the light phase. The animals were used and managed following the guidelines established in the Ethical Guidelines for Pain Research of the International Association for the Study of Pain, and following a protocol approved by the Local Committee of Ethics for the Management of Laboratory Animals. The number of experimental animals was kept to a minimum (n=6 to 8), and, at the end of the experimental determinations, the animals were sacrificed using carbon dioxide.
# The model for ICC neuropathic pain described by Bennett and Xie in 1988 was standardized. The rats were anesthetized and the sciatic nerve of the rear right leg was immediately dissected, by means of an incision, dissecting the biceps femoris to locate the part that is most proximal to the trifurcation of the sciatic nerve and apply four loose ligatures with silk thread. At the end of the surgery, the muscle was sutured with absorbable thread and the skin with silk thread. The surgery of the rats falsely operated on (Sham) was done in the same way, however, the sciatic nerve was not tied. This entire procedure was performed under aseptic conditions.
# The degree of hyperalgesia and allodynia in the rats submitted to the sciatic nerve surgery was determined by means of the Von Frey test and the acetone test. These determinations were made a day before the surgery and, 7 days after the surgery a time-course of 180 minutes was done for both the control (saline) and for the compounds that were administered orally, in the study, both singly and combined, to evidence the hyperalgesia and allodynia that were present. Then a time-course was made of hyperalgesia and allodynia, but now in rats with chronic treatment (1 administration/12 hours), carrying out the determinations of both hyperalgesia and allodynia 30 minutes after the morning administration of the treatments being studied and in the following period: 0, 1, 3, 5 and 7 days (14 administrations in total).
# At the end of the Von Frey test, the rats were left to rest on the metal screen and after a 5-10 min period, approximately 0.1 mL of acetone was applied to the plantar surface of the rear legs using a syringe with a flexible plastic tip, below the metal grating. The time (seconds) the animal remained with its leg removed from the surface was recorded with a chronometer for 60 s after exposure to the acetone. The response time of the rear right leg was measured and three replications were made at intervals of at least 2 minutes. […]
# [5] = test system: rats (lethal effects vs anti-allodynic effects); assay: Therapeutic index (DL50/DE50) and safety margin study in rats; type: in vivo, rat; settings: 24 h post-treatment
# Protocol: As further support for this invention, the therapeutic index study was also performed on rats 24 h post-treatment, which is defined as the quotient of DL50 (24 h)/DE50. From said analysis and calculation, we get that the higher the result, the safer the drug, as this indicates the number of times it is necessary to increase DE50 for it to be turned into DL50 in the population being analyzed.
# In other words, in a combination of said active ingredients, the CDR (for desired effects and lethal effects) was farther apart, therefore S-Ketorolac is safer in combination, as these variables are much farther apart. […] There is less distance between the CDR (desired effects and lethal effects) of the compound alone, than between the CDR (desired effects and toxic effects) of S-Ketorolac in combination with gabapentin.
# [6] = cited from earlier work
# [7] = 31.6 mg/kg gabapentin alone, 1.5 h after administration
structure (smiles),measurement,setting,value
"NC(CO)(CO)CO.O=C(c1ccccc1)c1ccc2n1CC[C@@H]2C(=O)O [S-Ketorolac tromethamine, S-(−)-5-Benzoyl-2,3-dihydro-1H-pyrrolizine-1-carboxylic acid of 2-amino-2-(hydroxymethyl)-1,3-propanediol (1:1)]",pharmacological potency relative to AA,[1],1037 times
same,pharmacological potency relative to Rac Ketorolac,[1],3.3 times
same,activity relative to the R form,[2],75 times
O=C(c1ccccc1)c1ccc2n1CC[C@@H]2C(=O)O [S-Ketorolac],maximal response for anti-hyperalgesic effects,"[3]; 31.6 mg/kg S-Ketorolac alone, 1 h after administration",43.33±5.58%
same,dose up to which the anti-hyperalgesic effect increased with dose,"[3]; doses 0.0316-100 mg/kg, no further increase above",3.16 mg/kg
same,anti-allodynic effect,[4]; 0.0316 mg/kg S-Ketorolac,almost no anti-allodynic effects
same,maximal anti-allodynic response,"[4]; 0.316 mg/kg S-Ketorolac alone, 30 minutes after administration",44.00±7.71%
same,anti-allodynic effect,[4]; 1.0 mg/kg S-Ketorolac,maximum anti-allodynic effect
same,"therapeutic index, DL50 (24 h)/DE50",[5],"18,541"
NCC1(CC(=O)O)CCCCC1 [gabapentin],maximal response for anti-hyperalgesic effects,[3]; [7],71.67±12.50%
same,anti-allodynic effect,[4]; 3.16 mg/kg gabapentin,practically does not generate anti-allodynic effects
same,maximal anti-allodynic response,[4]; [7],45.40±6.20%
same,anti-allodynic effect,"[4]; 31.6 mg/kg gabapentin alone, 3 h after administration",23.70±6.90%
same,anti-allodynic effect,[4]; 177.8 mg/kg gabapentin,maximum anti-allodynic effect
same,time of maximal anti-allodynic response after administration (latency),[4]; gabapentin 31.6 mg/kg alone or with 0.316 mg/kg S-Ketorolac,1.5 h
same,bioavailability,"[6]; 4,800 mg/day dose",27%
same,metabolism,[6]; eliminated by renal excretion,not appreciably metabolized
same,binding to plasma proteins,[6]; in vivo,3%
same,concentration in the cephalospinal liquid as share of the concentration in plasma,[6]; patients with epilepsy,approximately 20%
